Results on 50 compounds are retold here after patent publication US9845297B2, “Antimicrobial compounds and methods of making and using the same” (Melinta Therapeutics, Inc., priority 2009, dated 2017).

Some results are limits rather than exact numbers.

The assay relates to Eschericia coli strain ATCC25922. Put plainly: standard microdilution assay to determine minimum inhibitory concentrations (MICs). As to conditions: Escherichia coli, ATCC25922, Eschericia coli strain ATCC25922, standard microdilution assay; read-out: E. coli ATCC25922 MIC. In kind it is cell-based. Summed up: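 Broth microdilution per CLSI protocols, typically 100 µL final volume, against E. coli ATCC25922. MIC values scored as +/− against a cutoff of 16 micrograms/ml.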
(In broth dilution the organism is exposed to a series of concentrations in liquid medium.)
As for `N=C(N)NCCCNCc1ccc(-c2c[nH]c(NC(=O)NCCOc3cc(F)c(F)cc3F)nc2=O)cc1` [Compound 739], the minimum inhibitory concentration (MIC) – broadly, the least concentration at which growth counts as inhibited – is greater than 16 µg/mL.
Take `CN(C)CCN1CCN(c2ccc(NC(=O)Nc3nc(=O)c(-c4ccc(CN(CCCN)CCCN)cc4)c[nH]3)cc2)CC1` [Compound 210]: the MIC is less than 16 µg/mL.
In the case of `N=C(N)NCCCNCc1ccc(-c2c[nH]c(NC(=O)NCCCc3ccccc3OC(F)(F)F)nc2=O)cc1F` [Compound 540], the MIC is greater than 16 µg/mL.
Consider `NCCCNCc1ccc(-c2c[nH]c(NC(=O)Nc3ccccc3OC(F)(F)F)nc2=O)cc1C(F)(F)F` [Compound 269], for which the MIC was less than 16 µg/mL.
Turning to `NCCCN(Cc1ccc(-c2c[nH]c(NC(=O)Nc3cc(F)c(F)cc3F)nc2=O)cc1)Cc1ncc[nH]1` [Compound 325], the minimum inhibitory concentration (MIC) is greater than 16 µg/mL.
Turning to `CN(C(=O)C[C@@H](N)CCCNC(=N)N)C1CNC(NC(N)=O)=NC1=O` (some centres unmarked) [Compound 100], the MIC was greater than 16 µg/mL.
In the case of `NCCCNCc1ccc(-c2c[nH]c(NC(=O)Nc3ccccc3OCCCC(=O)O)nc2=O)cc1` [Compound 1297], the MIC is greater than 16 µg/mL.
With `NCCCNCc1ccc(-c2c[nH]c(NC(=O)Nc3cc(Cl)ccc3Cl)nc2=O)cc1F` [Compound 480], the minimal inhibitory concentration (MIC) is less than 16 µg/mL.
With `Nc1ccn(CCC[C@@H](N)CCCOCc2ccccc2)c(=O)n1` [Compound 119], the minimum inhibitory concentration (MIC) is greater than 16 µg/mL.
As to `COc1ccc([N+](=O)[O-])cc1NC(=O)Nc1nc(=O)c(-c2ccc(CNCCCN)c(F)c2)c[nH]1` [Compound 416], the MIC was greater than 16 µg/mL.
Turning to `NCCCN(CCCNC(N)N)Cc1ccc(-c2c[nH]c(Nc3nc4ccccc4[nH]3)nc2=O)cc1` [Compound 474], the MIC is less than 16 µg/mL.
Turning to `NCCCNCc1ccc(-c2c[nH]c(NC(=O)Nc3cc([N+](=O)[O-])ccc3Cl)nc2=O)cc1F` [Compound 457], the MIC is greater than 16 µg/mL.
Consider `CN(C)c1ccc(C(=O)Nc2ccn(CCCC(CCCNC(=N)N)NCCCN)c(=O)n2)cc1` (centres unmarked) [Compound 176], for which the MIC was less than 16 µg/mL.
On to `N=C(N)NCCCC(CCCN)Cc1ccc(-c2c[nH]c(NC(=O)NCCc3cccc(Cl)c3)nc2=O)cc1` (centres unmarked) [Compound 466], for which the minimal inhibitory concentration (MIC) is greater than 16 µg/mL.
The value for `O=C(Nc1nc(=O)c(CCN2CCNCC2)c[nH]1)Nc1ccccc1OC(F)(F)F` [Compound 368] was greater than 16 µg/mL; that for `N=C(N)NCCC[C@@H](CCCn1ccc(NC(N)=O)nc1=O)NCCCN` [Compound 130] was greater than 16 µg/mL.
Turning to `NC(=O)Nc1ccn(CCC[C@@H](N)CCCO)c(=O)n1` [Compound 123], the minimal inhibitory concentration (MIC) is greater than 16 µg/mL.
Regarding `N=C(N)NCc1cn(-c2ccc(-n3ccc(NC(N)=O)nc3=O)cc2)nn1` [Compound 141], the MIC was greater than 16 µg/mL.
On to `NCCCN(CCCC(=O)O)Cc1ccc(-c2c[nH]c(NC(=O)Nc3ccccc3OC(F)(F)F)nc2=O)cc1` [Compound 359], for which the minimal inhibitory concentration (MIC) was greater than 16 µg/mL.
For `NCCC[C@H](N)CCCn1ccc(NC(N)=O)nc1=O` [Compound 122] the value was greater than 16 µg/mL; for `O=C(Nc1nc(=O)c(-c2ccc(CNCc3nccs3)cc2)c[nH]1)Nc1cc(F)c(F)cc1F` [Compound 330], greater than 16 µg/mL.
In the case of `N#CCCCN(CCCN)Cc1ccc(-c2c[nH]c(NC(=O)Nc3cc(F)c(F)cc3F)nc2=O)cc1` [Compound 443], the MIC is greater than 16 µg/mL.
For the compound `NCCCNCc1ccc(-c2c[nH]c(NC(=O)NCc3ccc(Cl)c(Cl)c3)nc2=O)cc1F` [Compound 464], the MIC was greater than 16 µg/mL.
With `NCCCNCc1ccc(-c2c[nH]c(NC(=O)Nc3cc(F)c(F)cc3F)nc2=O)cc1F` [Compound 265], the minimum inhibitory concentration (MIC) was greater than 16 µg/mL.
Consider `N=C(N)NCCCN(CCCN)Cc1ccc(-c2c[nH]c(NC(=O)Nc3cc(Cl)cc(Cl)c3)nc2=O)cc1` [Compound 453], for which the MIC is less than 16 µg/mL.
As for `NCCCCN1CCCC(c2c[nH]c(NC(=O)Nc3ccccc3OC(F)(F)F)nc2=O)CC1` (centres unmarked) [Compound 524], the MIC is greater than 16 µg/mL.
Consider `NCCCN(CCCN)Cc1ccc(-c2c[nH]c(NC(=O)c3ccc(Cl)cc3)nc2=O)cc1` [Compound 173], for which the MIC was greater than 16 µg/mL.
Take `NCc1ccc(-c2c[nH]c(NC(=O)Nc3ccccc3OC(F)(F)F)nc2=O)cc1F` [Compound 247]: the MIC was greater than 16 µg/mL.
As to `NCCCNCc1ccc(-c2c[nH]c(NC(=O)Nc3ccccc3OCCCN)nc2=O)cc1` [Compound 1296], the MIC was greater than 16 µg/mL.
As to `O=C(Nc1nc(=O)c(-c2ccc(CNCCc3ccncc3)cc2)c[nH]1)Nc1ccccc1OC(F)(F)F` [Compound 323], the MIC was greater than 16 µg/mL.
On to `NCCCN(CCCN)Cc1ccc(-c2c[nH]c(Nc3nc4ccccc4[nH]3)nc2=O)cc1F` [Compound 351], for which the minimum inhibitory concentration (MIC) is less than 16 µg/mL.
Turning to `NCCCNCc1ccc(-c2c[nH]c(NC(=O)Nc3ccccc3OC(F)(F)F)nc2=O)cc1Cl` [Compound 242], the MIC is less than 16 µg/mL.
With `NCCCCNC1CCN(c2c[nH]c(NC(=O)Nc3cc(F)c(F)cc3F)nc2=O)CC1` [Compound 619], the MIC was greater than 16 µg/mL.
Regarding `NCCCNCc1ccc(-c2c[nH]c(NC(=O)Nc3ccc(F)c([N+](=O)[O-])c3)nc2=O)cc1F` [Compound 389], the MIC was greater than 16 µg/mL.
Consider `CC(C)=CCN(CCCN)Cc1ccc(-c2c[nH]c(NC(=O)Nc3ccccc3OC(F)(F)F)nc2=O)cc1` [Compound 304], for which the MIC is less than 16 µg/mL.
As to `NCCCNCc1ccc(-c2c[nH]c(NC(=O)Nc3ccc([N+](=O)[O-])cc3Cl)nc2=O)cc1F` [Compound 494], the MIC was greater than 16 µg/mL.
The value for `NCCCN(CCCN)Cc1c(F)cc(-c2c[nH]c(NC(=O)Nc3cccc(Cl)c3Cl)nc2=O)cc1F` [Compound 297] was less than 16 µg/mL.
In the case of `NCCCN1CCN(C(=O)Cc2c[nH]c(NC(=O)Nc3cccc(Cl)c3Cl)nc2=O)CC1` [Compound 408], the MIC was greater than 16 µg/mL.
In the case of `NCCCN(CCC1CC1)Cc1ccc(-c2c[nH]c(NC(=O)Nc3cc(F)c(F)cc3F)nc2=O)cc1` [Compound 401], the minimal inhibitory concentration (MIC) was less than 16 µg/mL.
With `NCc1ccc(-c2c[nH]c(NC(=O)NC3CCCC[C@H]3NCC(F)(F)F)nc2=O)cc1` (some centres unmarked) [Compound 1357], the minimal inhibitory concentration (MIC) was greater than 16 µg/mL.
For `NCCCNCc1ccc(-c2c[nH]c(NC(=O)Nc3ccc(OC(F)F)cc3)nc2=O)cc1C(F)(F)F` [Compound 270], the MIC is greater than 16 µg/mL.
Consider `CSc1ccc(C(=O)Nc2ccn(CCCC(CCCNC(=N)N)NCCCN)c(=O)n2)cc1` (centres unmarked) [Compound 175], for which the minimal inhibitory concentration (MIC) is greater than 16 µg/mL.
As for `N=C(N)NCCCC(CCCn1ccc(NC(=O)c2ccc(N3CCOCC3)nc2)nc1=O)NCCCN` (centres unmarked) [Compound 187], the minimal inhibitory concentration (MIC) was greater than 16 µg/mL.
The value for `NCCCNCc1ccc(-c2c[nH]c(NC(=O)Nc3ccc(C(F)(F)F)cc3Cl)nc2=O)cc1F` [Compound 419] was less than 16 µg/mL; that for `N=C(N)NCCCCNC1CCN(c2c[nH]c(NC(=O)Nc3ccccc3OC(F)(F)F)nc2=O)CC1` [Compound 605] was greater than 16 µg/mL.
Take `CCN[C@@H]1CCCCC1NC(=O)Nc1nc(=O)c(-c2ccc(CN)cc2)c[nH]1` (some centres unmarked) [Compound 1302]: the MIC is greater than 16 µg/mL.
Regarding `NCCCN[C@@H]1CCN(CCc2c[nH]c(NC(=O)Nc3cccc(Cl)c3Cl)nc2=O)C1` [Compound 385], the MIC was greater than 16 µg/mL.
Take `O=C(NCc1ccc(F)cc1)Nc1nc(=O)c(-c2ccc(CNCCCF)c(Cl)c2)c[nH]1` [Compound 257]: the minimal inhibitory concentration (MIC) was greater than 16 µg/mL.
As for `NCCCCCN1CCN(c2c[nH]c(Nc3nc4cc(F)c(F)cc4[nH]3)nc2=O)CC1` [Compound 541], the minimum inhibitory concentration (MIC) was greater than 16 µg/mL.
With `N=C(N)NCCCCN1CCCC(c2c[nH]c(NC(=O)Nc3ccccc3OC(F)(F)F)nc2=O)CC1` (centres unmarked) [Compound 525], the minimal inhibitory concentration (MIC) was greater than 16 µg/mL.
